Results reported in the Kinase Knowledgebase extract (Sharma et al. 2016).

Columns and labels:
EGFR (mouse) [1] = target: EGFR (mouse) (UniProt P00533); conditions: balb/c 3t3
EGFR (mouse) [2] = target: EGFR (mouse) (UniProt P00533); conditions: balb/mk
EGFR = EGFR (UniProt P00533)
Sequence of EGFR (P00533 whole entry, looked up): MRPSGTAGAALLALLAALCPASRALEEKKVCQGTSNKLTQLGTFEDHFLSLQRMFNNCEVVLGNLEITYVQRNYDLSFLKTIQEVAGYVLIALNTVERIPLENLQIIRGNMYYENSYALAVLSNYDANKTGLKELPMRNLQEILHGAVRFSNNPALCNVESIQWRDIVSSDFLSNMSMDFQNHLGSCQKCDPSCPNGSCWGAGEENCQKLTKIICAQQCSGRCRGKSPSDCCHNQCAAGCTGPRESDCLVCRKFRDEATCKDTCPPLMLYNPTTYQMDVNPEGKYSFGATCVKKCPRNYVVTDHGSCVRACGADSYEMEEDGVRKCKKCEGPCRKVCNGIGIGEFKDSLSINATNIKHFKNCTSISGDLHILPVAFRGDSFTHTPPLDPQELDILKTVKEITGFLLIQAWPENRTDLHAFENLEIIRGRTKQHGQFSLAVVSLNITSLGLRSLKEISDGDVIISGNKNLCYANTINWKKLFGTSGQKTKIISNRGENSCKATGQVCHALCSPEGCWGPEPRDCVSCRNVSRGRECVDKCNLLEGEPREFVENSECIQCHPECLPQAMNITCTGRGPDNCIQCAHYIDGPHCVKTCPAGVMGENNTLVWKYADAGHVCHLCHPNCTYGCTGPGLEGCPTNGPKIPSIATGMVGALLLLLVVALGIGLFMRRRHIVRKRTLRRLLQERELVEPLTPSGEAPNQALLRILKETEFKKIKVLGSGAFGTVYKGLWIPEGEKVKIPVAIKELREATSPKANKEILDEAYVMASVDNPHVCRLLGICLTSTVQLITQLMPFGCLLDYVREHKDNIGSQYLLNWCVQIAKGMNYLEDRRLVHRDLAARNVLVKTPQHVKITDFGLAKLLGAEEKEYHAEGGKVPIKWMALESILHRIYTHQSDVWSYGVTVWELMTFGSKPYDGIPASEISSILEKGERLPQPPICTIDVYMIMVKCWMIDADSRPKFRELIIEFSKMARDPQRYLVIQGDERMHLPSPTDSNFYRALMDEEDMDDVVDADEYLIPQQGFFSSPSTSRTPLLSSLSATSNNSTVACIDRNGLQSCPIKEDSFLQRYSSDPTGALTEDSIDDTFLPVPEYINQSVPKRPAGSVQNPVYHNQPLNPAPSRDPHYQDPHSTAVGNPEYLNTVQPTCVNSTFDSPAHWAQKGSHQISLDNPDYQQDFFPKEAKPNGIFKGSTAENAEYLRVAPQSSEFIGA

Row | SMILES | IC50 (EGFR (mouse) [1]) | IC50 (EGFR (mouse) [2]) | IC50 (EGFR)
1 | COc1ccc(-c2n[nH]c3ncnc(Nc4cccc(Cl)c4)c23)cc1 | > 10 µM | – | –
2 | Nc1ncnc2[nH]nc(Nc3cccc(Cl)c3)c12 | > 10 µM | – | –
3 | Nc1ccc(-c2n[nH]c3ncnc(Nc4cccc(Cl)c4)c23)cc1 | > 10 µM | – | –
4 | Nc1nc(N)c2c(Nc3cccc(Cl)c3)n[nH]c2n1 | > 10 µM | – | –
5 | CC(C)(C)OC(=O)Nc1ccc(-c2n[nH]c3ncnc(Nc4cccc(Cl)c4)c23)cc1 | > 10 µM | – | –
6 | c1ccc(Nc2ncnc3[nH]nc(Nc4ccccc4)c23)cc1 | > 10 µM | – | –
7 | COc1ccc(CNc2n[nH]c3ncnc(Nc4cccc(Cl)c4)c23)cc1 | > 10 µM | – | –
8 | Cc1c(C)n(C)c2ncnc(Nc3cccc(Cl)c3)c12 | – | – | 0.45 µM
9 | Nc1ncnc2c1c(-c1ccccc1)nn2-c1ccccc1 | > 10 µM | > 50 µM | –
10 | Clc1cccc(Nc2ncnc3[nH]nc(-c4ccccc4)c23)c1 | > 10 µM | – | –

Now from value to molecule:

Row | IC50 (EGFR (mouse) [1]) | IC50 (EGFR (mouse) [2]) | IC50 (EGFR) | SMILES
11 | > 10 µM | – | – | COc1cccc(CNc2n[nH]c3ncnc(Nc4cccc(Cl)c4)c23)c1
12 | > 10 µM | – | – | Clc1cccc(CNc2n[nH]c3ncnc(Nc4cccc(Cl)c4)c23)c1
13 | 10 µM | > 50 µM | – | Clc1cccc(Nc2n[nH]c3ncnc(Oc4cccc(Cl)c4)c23)c1
14 | > 10 µM | > 50 µM | – | O=[N+]([O-])c1cccc(-c2n[nH]c3ncnc(Nc4cccc(Cl)c4)c23)c1
15 | > 10 µM | – | – | Oc1ccc(-c2n[nH]c3ncnc(Nc4cccc(Cl)c4)c23)cc1
16 | > 10 µM | – | – | Oc1ccc(Nc2n[nH]c3ncnc(Nc4cccc(Cl)c4)c23)cc1
17 | > 10 µM | – | – | Oc1cccc(-c2n[nH]c3ncnc(Nc4cccc(Cl)c4)c23)c1
18 | > 10 µM | – | – | Cc1cccc(Nc2ncnc3[nH]nc(Nc4cccc(Cl)c4)c23)c1
19 | > 10 µM | – | – | COc1cccc(Nc2n[nH]c3ncnc(Nc4cccc(Cl)c4)c23)c1
20 | > 10 µM | – | – | Clc1cccc(Nc2n[nH]c3ncnc(NCc4ccccc4)c23)c1
21 | > 10 µM | – | – | Clc1cccc(Nc2ncnc3[nH]nc(NCc4ccccc4)c23)c1
22 | > 10 µM | – | – | Clc1cccc(Nc2n[nH]c3ncnc(Nc4ccccc4)c23)c1
23 | > 10 µM | – | – | Nc1cccc(-c2n[nH]c3ncnc(Nc4cccc(Cl)c4)c23)c1
24 | > 10 µM | – | – | Oc1cccc(Nc2n[nH]c3ncnc(Nc4cccc(Cl)c4)c23)c1
25 | > 10 µM | – | – | Clc1cccc(Nc2n[nH]c3ncnc(Nc4cccc(Br)c4)c23)c1
